According to PubChem BioAssay AID1919010 (Molecular Pharmacology Branch, DTP, NCI, 2023):

Test system: Hs578T complex spheroid growth, percent test/control
Experiment: Anticancer human tumor Hs578T cell line growth inhibition [AhR];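 further: luminescent viability signal as a proxy for spheroid growth; spheroids exposed to agents for one week after three days of growth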
Conditions: for IC50: curve of first compound; for viability, T/C: stronger effect = lower value
Description: Multicellular complex tumor spheroid response to aryl hydrocarbon receptor antagonists in combination with a variety of drugs and investigational agents in selected tumor cell lines
The current study was undertaken to assess response to aryl hydrocarbon receptor antagonists in combination with standard-of-care drugs and investigational agents in solid tumor complex spheroid models. Complex spheroids include a stromal component modeled by human endothelial cells (HUVEC) and fibroblasts modeled by human mesenchymal stem cells (MSCs). The concentration ranges selected for each drug and investigational agent were based upon clinically achievable concentrations if the clinical Cmax of the agent was known.
Compounds. The drugs and investigational agents: BAY 2416964 (NSC825713), GNF351 (NSC835774), CH-223191 (NSC835775), CPI-455 (NSC825282), aza-TdCyd (NSC777586), decitabine (NSC127716), belinostat (NSC758774), entinostat (NSC756642), pevonedistat (NSC761192), tazemetostat (NSC777109), talazoparib (NSC765396), olaparib (NSC753686), selinexor (NSC780203), nedisertib (M3814, NSC802822), bortezomib (NSC756655), venetoclax (NSC766270), doxorubicin (NSC123127), elimusertib (BAY189344, NSC800525), ceralasertib (AZD6738, NSC777638), TAK-243 (NSC785004), alisertib (NSC759677), etoposide (NSC141540), topotecan (NSC609699), eribulin (NSC707389), gemcitabine (NSC613327), carboplatin (NSC241240), cisplatin (NSC119875), and SN-38 (NSC673596) were obtained from the National Cancer Institute (NCI) Developmental Therapeutics Program Chemical Repository (32). The FDA-approved anticancer drug set is available from the Developmental Therapeutics Program at https://dtp.cancer.gov/organization/dscb/obtaining/available plates.htm. […] The stock solutions were prepared in dimethyl sulfoxide (DMSO, Sigma-Aldrich, St. Louis, MO, cat. D2650), except for the platinum compounds which were prepared in saline (Quality Biological, Gaithersburg, MD, cat. 114-055-101), at 800-fold the tested concentration and stored at -70 degrees C prior to their use. All drugs and investigational agents were tested over a range starting from a high concentration at or near the clinical Cmax and decreasing in half-log increments. If the clinical Cmax for an agent had not been determined, the highest concentration tested was 10 microM (Table 1).
Cell Culture. All cells were maintained in an incubator at 37 degrees C and 5% CO2 with 95% humidity. The PDC lines were cultured according to standard operating procedures established by the NCI PDMR (https://pdmr.cancer.gov). Briefly, all PDCs were thawed and cultured in Matrigel-coated flasks prepared with a working solution of 1X Ham's F-12 nutrient mix, without supplementation (Invitrogen, Waltham, MA, cat. 11765054), 100 U/mL penicillin-streptomycin (Invitrogen, cat. 15140122), and 2.5% Matrigel (Corning Inc., Corning, NY, cat. 354248) for the first three passages. All PDCs were cultured in complete DMEM/F-12 media containing advanced DMEM/F-12 (Invitrogen, cat. 12634028), 4.9% defined fetal bovine serum, heat inactivated (HyClone Laboratories Inc., Logan, UT, cat. SH30070.03HI), 389 ng/mL hydrocortisone (Sigma-Aldrich, cat. H4001), 9.7 ng/mL human EGF recombinant protein (Invitrogen, cat. PHG0313), 23.4 microg/mL adenine (Sigma-Aldrich, cat. A2786), 97.3 U/mL penicillin-streptomycin (Invitrogen, cat. 15140122), 1.9 mM L-glutamine (Invitrogen, cat. 25030081), and 9.7 microM Y-27632 dihydrochloride (Tocris Bioscience, Bristol, United Kingdom, cat. 1254). The PDCs were cultured in complete DMEM/F12 media without 10 microM Y-27632 dihydrochloride for at least two passages prior to the screen. The established cell lines NCI-H1341 and […] were cultured in DMEM/F-12, HEPES (Invitrogen, cat. 11330032), 5% defined fetal bovine serum (HyClone Laboratories Inc., cat. SH30070.03), ITS premix universal culture supplement [insulin (5 microg/mL), transferrin (5 microg/mL), and selenious acid (5 ng/mL)] […]

[1] = second compound 0.1 µM, first compound 0.0316 µM
[2] = second compound 0.1 µM, first compound 0.1 µM
[3] = second compound 0.316 µM, first compound 0.0316 µM
[4] = second compound 0.316 µM, first compound 0.1 µM
[5] = second compound 1 µM, first compound 0.0316 µM
[6] = second compound 1 µM, first compound 0.1 µM
[7] = second compound 3.16 µM, first compound 0.0316 µM
[8] = second compound 3.16 µM, first compound 0.1 µM
[9] = second compound 10 µM, first compound 0.0316 µM
[10] = second compound 10 µM, first compound 0.1 µM

CC[C@@]1(O)C(=O)OCc2c1cc1n(c2=O)Cc2cc3c(CN(C)C)c(O)ccc3nc2-1 + CC(CO)NC(=O)c1cc(-c2ccc(Cl)cc2)nn(-c2cnn(C)c2)c1=O
IC50 (second compound 0.1 µM): > 0.1 µM
IC50 (second compound 0.316 µM): > 0.1 µM
IC50 (second compound 1 µM): > 0.1 µM
IC50 (second compound 3.16 µM): > 0.1 µM
IC50 (second compound 10 µM): > 0.1 µM
viability, T/C (second compound 0.1 µM, first compound 0.000316 µM): 120%
viability, T/C (second compound 0.1 µM, first compound 0.001 µM): 115%
viability, T/C (second compound 0.1 µM, first compound 0.00316 µM): 114%
viability, T/C (second compound 0.1 µM, first compound 0.01 µM): 103%
viability, T/C [1]: 83.9%
viability, T/C [2]: 82%
viability, T/C (second compound 0.316 µM, first compound 0.000316 µM): 112%
viability, T/C (second compound 0.316 µM, first compound 0.001 µM): 110%
viability, T/C (second compound 0.316 µM, first compound 0.00316 µM): 115%
viability, T/C (second compound 0.316 µM, first compound 0.01 µM): 98.9%
viability, T/C [3]: 89.6%
viability, T/C [4]: 84%
viability, T/C (second compound 1 µM, first compound 0.000316 µM): 126%
viability, T/C (second compound 1 µM, first compound 0.001 µM): 123%
viability, T/C (second compound 1 µM, first compound 0.00316 µM): 120%
viability, T/C (second compound 1 µM, first compound 0.01 µM): 109%
viability, T/C [5]: 91.4%
viability, T/C [6]: 103%
viability, T/C (second compound 3.16 µM, first compound 0.000316 µM): 115%
viability, T/C (second compound 3.16 µM, first compound 0.001 µM): 118%
viability, T/C (second compound 3.16 µM, first compound 0.00316 µM): 132%
viability, T/C (second compound 3.16 µM, first compound 0.01 µM): 93.8%
viability, T/C [7]: 82.9%
viability, T/C [8]: 86.8%
viability, T/C (second compound 10 µM, first compound 0.000316 µM): 110%
viability, T/C (second compound 10 µM, first compound 0.001 µM): 117%
viability, T/C (second compound 10 µM, first compound 0.00316 µM): 110%
viability, T/C (second compound 10 µM, first compound 0.01 µM): 103%
viability, T/C [9]: 84.5%
viability, T/C [10]: 83.7%

COc1cc(C2c3cc4c(cc3C(OC3OC5COC(C)OC5C(O)C3O)C3COC(=O)C23)OCO4)cc(OC)c1O (stereo not given) + CC(CO)NC(=O)c1cc(-c2ccc(Cl)cc2)nn(-c2cnn(C)c2)c1=O
IC50 (second compound 0.1 µM): > 10 µM
IC50 (second compound 0.316 µM): > 10 µM
IC50 (second compound 1 µM): > 10 µM
IC50 (second compound 3.16 µM): > 10 µM
IC50 (second compound 10 µM): > 10 µM
viability, T/C [1]: 103%
viability, T/C [2]: 109%
viability, T/C (second compound 0.1 µM, first compound 0.316 µM): 87.9%
viability, T/C (second compound 0.1 µM, first compound 1 µM): 79.2%
viability, T/C (second compound 0.1 µM, first compound 3.16 µM): 81%
viability, T/C (second compound 0.1 µM, first compound 10 µM): 64.9%
viability, T/C [3]: 111%
viability, T/C [4]: 99.2%
viability, T/C (second compound 0.316 µM, first compound 0.316 µM): 105%
viability, T/C (second compound 0.316 µM, first compound 1 µM): 83.2%
viability, T/C (second compound 0.316 µM, first compound 3.16 µM): 73.8%
viability, T/C (second compound 0.316 µM, first compound 10 µM): 57.1%
viability, T/C [5]: 108%
viability, T/C [6]: 123%
viability, T/C (second compound 1 µM, first compound 0.316 µM): 88.7%
viability, T/C (second compound 1 µM, first compound 1 µM): 80.1%
viability, T/C (second compound 1 µM, first compound 3.16 µM): 89.1%
viability, T/C (second compound 1 µM, first compound 10 µM): 60.5%
viability, T/C [7]: 116%
viability, T/C [8]: 102%
viability, T/C (second compound 3.16 µM, first compound 0.316 µM): 99.9%
viability, T/C (second compound 3.16 µM, first compound 1 µM): 86.2%
viability, T/C (second compound 3.16 µM, first compound 3.16 µM): 79.2%
viability, T/C (second compound 3.16 µM, first compound 10 µM): 60.7%
viability, T/C [9]: 83.7%
viability, T/C [10]: 88.3%
viability, T/C (second compound 10 µM, first compound 0.316 µM): 89.1%
viability, T/C (second compound 10 µM, first compound 1 µM): 76.6%
viability, T/C (second compound 10 µM, first compound 3.16 µM): 83.4%
viability, T/C (second compound 10 µM, first compound 10 µM): 58.9%
